Here are results for 22 molecules from patent US8952169B2 (Genentech, Inc., priority 2012, dated 2015).

One assay addresses hNav1.5 (Homo sapiens (Human), UniProt Q14524). The assay can be described thus: Patch voltage clamp electrophysiology (PatchXpress), HEK-293 cells, inactivated state block. The conditions noted are these: read-out: EP_PX 293 hNav1.5 (IC50), β1 coexpressed, holding −60 mV.
In assay [1] the target is T1, hNav1.7 (Homo sapiens (Human), UniProt Q15858). The assay can be described thus: Tritiated aryl sulfonamide binding to membranes from cells expressing hNav1.7 and the β1 subunit (competitive binding). Conditions: read-out: NaV1.7 395 Memb Binding (IC50). The procedure, abridged: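 Competitive displacement of 100 μM [3H]-labelled tritiated aryl sulfonamide from hNav1.7/β1 membranes, 18 h at room temperature in 100 mM NaCl, 20 mM Tris HCl pH 7.4. Non-specific binding defined with 1 μM unlabelled compound. Filter-bound radioactivity measured by liquid scintillation counting.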
T1 sequence (Q15858 whole entry, looked up): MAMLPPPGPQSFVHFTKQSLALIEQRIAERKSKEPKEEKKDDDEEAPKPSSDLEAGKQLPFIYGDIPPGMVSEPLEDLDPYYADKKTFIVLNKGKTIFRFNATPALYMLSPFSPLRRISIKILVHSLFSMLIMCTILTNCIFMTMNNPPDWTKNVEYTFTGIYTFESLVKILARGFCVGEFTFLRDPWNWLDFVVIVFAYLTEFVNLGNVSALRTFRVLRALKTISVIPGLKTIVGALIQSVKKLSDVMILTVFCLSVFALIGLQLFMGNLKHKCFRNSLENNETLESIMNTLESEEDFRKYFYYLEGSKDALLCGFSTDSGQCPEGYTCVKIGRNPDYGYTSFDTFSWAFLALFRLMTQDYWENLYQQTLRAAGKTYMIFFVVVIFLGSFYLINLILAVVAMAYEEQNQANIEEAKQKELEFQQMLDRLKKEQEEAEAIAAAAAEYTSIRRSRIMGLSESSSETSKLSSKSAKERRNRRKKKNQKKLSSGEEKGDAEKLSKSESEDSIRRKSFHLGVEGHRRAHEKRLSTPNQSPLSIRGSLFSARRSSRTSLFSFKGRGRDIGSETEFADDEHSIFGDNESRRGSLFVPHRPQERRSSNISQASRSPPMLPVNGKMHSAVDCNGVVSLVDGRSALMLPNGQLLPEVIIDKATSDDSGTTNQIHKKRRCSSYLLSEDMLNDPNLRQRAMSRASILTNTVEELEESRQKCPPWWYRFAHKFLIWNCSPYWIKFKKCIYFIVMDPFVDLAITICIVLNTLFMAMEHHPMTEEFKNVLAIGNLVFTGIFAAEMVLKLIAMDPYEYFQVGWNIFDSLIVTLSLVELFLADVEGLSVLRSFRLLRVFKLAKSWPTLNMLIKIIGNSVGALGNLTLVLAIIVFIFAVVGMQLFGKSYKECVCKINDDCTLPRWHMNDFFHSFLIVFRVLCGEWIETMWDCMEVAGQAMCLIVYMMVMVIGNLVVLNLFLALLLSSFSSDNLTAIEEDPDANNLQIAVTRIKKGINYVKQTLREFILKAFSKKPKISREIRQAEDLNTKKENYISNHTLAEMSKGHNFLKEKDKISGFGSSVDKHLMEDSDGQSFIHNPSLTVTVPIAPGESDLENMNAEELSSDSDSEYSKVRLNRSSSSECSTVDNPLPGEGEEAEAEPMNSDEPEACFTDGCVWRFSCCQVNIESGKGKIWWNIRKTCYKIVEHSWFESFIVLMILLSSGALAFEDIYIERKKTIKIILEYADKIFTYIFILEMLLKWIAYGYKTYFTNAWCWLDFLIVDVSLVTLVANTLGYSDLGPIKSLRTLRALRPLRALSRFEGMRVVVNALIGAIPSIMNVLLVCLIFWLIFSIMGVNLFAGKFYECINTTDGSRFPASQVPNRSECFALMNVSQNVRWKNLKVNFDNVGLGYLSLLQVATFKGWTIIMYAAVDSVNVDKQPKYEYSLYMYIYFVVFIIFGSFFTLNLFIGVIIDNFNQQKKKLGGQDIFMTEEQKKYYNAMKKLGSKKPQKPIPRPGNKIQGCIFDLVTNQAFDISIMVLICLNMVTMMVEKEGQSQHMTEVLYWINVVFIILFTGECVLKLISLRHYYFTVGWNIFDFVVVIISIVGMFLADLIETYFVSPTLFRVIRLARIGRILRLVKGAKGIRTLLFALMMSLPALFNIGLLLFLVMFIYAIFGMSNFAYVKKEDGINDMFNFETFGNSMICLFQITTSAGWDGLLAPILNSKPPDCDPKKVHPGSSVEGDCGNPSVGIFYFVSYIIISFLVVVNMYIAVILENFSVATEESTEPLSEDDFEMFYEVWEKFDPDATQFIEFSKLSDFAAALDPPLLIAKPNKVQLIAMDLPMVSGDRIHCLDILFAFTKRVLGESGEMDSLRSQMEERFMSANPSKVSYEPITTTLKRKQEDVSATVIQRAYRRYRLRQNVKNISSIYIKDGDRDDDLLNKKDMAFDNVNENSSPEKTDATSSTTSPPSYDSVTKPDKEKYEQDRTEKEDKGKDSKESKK
T1 sequence (Q07699 whole entry partner, looked up): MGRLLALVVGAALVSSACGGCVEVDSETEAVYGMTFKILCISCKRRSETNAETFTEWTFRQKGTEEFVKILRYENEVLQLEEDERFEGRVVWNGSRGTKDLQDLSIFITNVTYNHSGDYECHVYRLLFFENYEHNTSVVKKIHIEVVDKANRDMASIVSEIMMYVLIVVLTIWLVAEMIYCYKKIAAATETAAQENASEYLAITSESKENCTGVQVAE

In assay [2] the target is T1, hNav1.7. The assay can be described thus: Patch voltage clamp electrophysiology (PatchXpress), HEK-293 cells, inactivated state block. Conditions: read-out: EP_PX 293 hNav1.7 (IC50). In kind it is cell-based.
Where [3] appears, read: membranes with hNav1.7 and β1 subunit, [3H]compound displacement, 18 h, room temperature.
The mark [4] stands for this setting: HEK-293 cells, β1 coexpressed, inactivated state, holding −60 mV.

Sequence of hNav1.5 (Q14524 whole entry): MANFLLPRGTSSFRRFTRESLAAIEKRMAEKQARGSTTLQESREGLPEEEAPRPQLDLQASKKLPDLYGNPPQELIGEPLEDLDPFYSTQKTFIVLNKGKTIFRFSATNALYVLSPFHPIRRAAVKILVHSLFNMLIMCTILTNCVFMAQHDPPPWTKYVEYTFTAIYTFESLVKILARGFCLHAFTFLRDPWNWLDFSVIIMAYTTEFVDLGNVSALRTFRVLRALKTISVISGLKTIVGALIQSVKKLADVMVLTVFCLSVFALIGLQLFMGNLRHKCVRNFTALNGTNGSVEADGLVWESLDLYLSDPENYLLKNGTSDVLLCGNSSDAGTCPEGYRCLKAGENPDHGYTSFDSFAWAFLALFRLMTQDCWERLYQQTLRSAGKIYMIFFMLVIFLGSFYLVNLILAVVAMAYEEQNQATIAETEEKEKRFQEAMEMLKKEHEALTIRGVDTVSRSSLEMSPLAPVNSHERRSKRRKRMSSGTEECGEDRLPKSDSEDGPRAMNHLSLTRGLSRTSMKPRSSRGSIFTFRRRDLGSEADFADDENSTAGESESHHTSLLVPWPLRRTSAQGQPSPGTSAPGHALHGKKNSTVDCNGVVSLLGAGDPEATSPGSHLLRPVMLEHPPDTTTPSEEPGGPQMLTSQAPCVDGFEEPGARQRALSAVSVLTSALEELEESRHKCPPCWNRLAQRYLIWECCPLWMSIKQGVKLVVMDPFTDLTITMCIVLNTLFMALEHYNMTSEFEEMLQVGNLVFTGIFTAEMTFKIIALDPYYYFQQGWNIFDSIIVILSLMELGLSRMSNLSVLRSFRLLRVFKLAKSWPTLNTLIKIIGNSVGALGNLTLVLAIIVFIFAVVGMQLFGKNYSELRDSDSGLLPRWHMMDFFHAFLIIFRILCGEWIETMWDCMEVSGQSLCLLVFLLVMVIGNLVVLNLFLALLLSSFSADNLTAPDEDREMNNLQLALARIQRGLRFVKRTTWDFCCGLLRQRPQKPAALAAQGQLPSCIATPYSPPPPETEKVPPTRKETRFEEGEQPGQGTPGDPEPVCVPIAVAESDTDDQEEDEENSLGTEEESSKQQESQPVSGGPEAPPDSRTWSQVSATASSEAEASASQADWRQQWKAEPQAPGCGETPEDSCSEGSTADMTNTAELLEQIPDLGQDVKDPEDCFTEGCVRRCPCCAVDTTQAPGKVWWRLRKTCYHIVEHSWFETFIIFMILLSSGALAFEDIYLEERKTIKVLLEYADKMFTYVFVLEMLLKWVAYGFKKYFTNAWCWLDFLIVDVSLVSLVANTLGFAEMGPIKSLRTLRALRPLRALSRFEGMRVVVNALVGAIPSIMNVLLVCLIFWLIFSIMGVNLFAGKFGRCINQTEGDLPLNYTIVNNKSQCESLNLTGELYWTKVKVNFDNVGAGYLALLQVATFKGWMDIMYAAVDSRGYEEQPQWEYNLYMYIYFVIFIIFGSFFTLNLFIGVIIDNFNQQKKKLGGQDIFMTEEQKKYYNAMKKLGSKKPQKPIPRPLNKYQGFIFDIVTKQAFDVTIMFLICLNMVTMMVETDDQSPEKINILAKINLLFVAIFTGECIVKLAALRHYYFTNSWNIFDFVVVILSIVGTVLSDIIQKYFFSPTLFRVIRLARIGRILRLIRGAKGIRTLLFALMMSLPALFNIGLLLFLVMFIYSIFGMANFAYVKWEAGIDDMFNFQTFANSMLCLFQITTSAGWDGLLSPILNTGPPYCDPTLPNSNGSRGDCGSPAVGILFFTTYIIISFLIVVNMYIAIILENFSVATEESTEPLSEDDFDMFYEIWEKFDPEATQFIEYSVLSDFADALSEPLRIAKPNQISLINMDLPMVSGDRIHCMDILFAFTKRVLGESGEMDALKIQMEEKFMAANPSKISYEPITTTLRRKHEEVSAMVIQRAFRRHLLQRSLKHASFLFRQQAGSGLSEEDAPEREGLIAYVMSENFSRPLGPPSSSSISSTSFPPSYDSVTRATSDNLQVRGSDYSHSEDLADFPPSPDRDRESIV

Turning to `COCCS(=O)(=O)NC(=O)c1cc(C2CC2)c(OCC2CCCCC2)cc1F`, the IC50 at hNav1.5 came to 140 nM.
On the same count and under the same terms, in the case of `O=C(NS(=O)(=O)C1CC1)c1cc(Cl)c(OCC23CC4CC(CC(C4)C2)C3)cc1F` it was 427 nM.
Consider `CN(C)S(=O)(=O)NC(=O)c1cc(Cl)c(OCC23CC4CC(C2)C(F)(F)C(C4)C3)cc1F` [Example 92], for which the IC50 on hNav1.7 [1] (setting [3]) was determined as 221 nM; at hNav1.7 [2] (setting [4]) it was 53.1 nM; at hNav1.5, 3760 nM.
Turning to `O=C(NS(=O)(=O)N1CC(F)(F)C1)c1cc(C2CC2)c(OCC23CC4CC(CC(C4)C2)C3)cc1F`, the values for the IC50 on hNav1.7 [1] (setting [3]) and on hNav1.5 were 10 nM and 326 nM, respectively.
For the molecule `O=C(NS(=O)(=O)N1CCC1)c1cc(C2CC2)c(OCC2CCC(F)(F)CC2)cc1F` [Example 448, N-(azetidin-1-ylsulfonyl)-5-cyclopropyl-4-((4,4-difluorocyclohexyl)-methoxy)-2-fluorobenzamide], the IC50 at hNav1.7 [1] (setting [3]) came out at 18 nM; at hNav1.7 [2] (setting [4]), 7.8 nM; on hNav1.5, 940 nM.
Consider `O=C(NS(=O)(=O)N1CCC1)c1cc(C2CC2)c(OCC2CCCCC2)cc1F`, for which the half-inhibitory concentration (IC50) at hNav1.7 [1] was determined as 6 nM; at hNav1.7 [2], 1 nM; at hNav1.5 it was 40 nM.
For the molecule `CS(=O)(=O)NC(=O)c1cc(Cl)c(OCC2CC3C4CCC(C4)C3C2)cc1F` (stereo not drawn), the IC50 at hNav1.7 [1] (setting [3]) was found to be 9 nM; on hNav1.7 [2] (setting [4]), 3.6 nM; at hNav1.5, 743 nM.
For `O=C(NS(=O)(=O)N1CCC1)c1cc(C2CC2)c(O[C@H]2C3CC4CC2C[C@](Cl)(C4)C3)cc1F` the same measures were 9 nM, 30 nM and 21600 nM.
The corresponding values for `O=C(NS(=O)(=O)N1CC(O)C1)c1cc(C2CC2)c(OCC23CC4CC(CC(C4)C2)C3)cc1F` are 7 nM, 10.7 nM and 60.6 nM.
For the molecule `O=C(NS(=O)(=O)N1CC(F)C1)c1cc(C2CC2)c(OCC23CC4CC(CC(C4)C2)C3)cc1F`, the IC50 at hNav1.7 [1] (setting [3]) is 1 nM; on hNav1.5 it was 422 nM.
On to `CS(=O)(=O)NC(=O)c1cc(C2CC2)c(OCC23CC4(F)CC(F)(CC(F)(C4)C2)C3)cc1F`, for which the IC50 came out at 14 nM at hNav1.7 [1] (setting [3]), 20 nM at hNav1.7 [2] (setting [4]) and 3500 nM on hNav1.5.
The corresponding values for `O=C(NS(=O)(=O)C1CC1)c1cc(C2CC2)c(OCC2CCC(F)(F)CC2)cc1F` are 6 nM, 8 nM and 630 nM.
On to `O=C(NS(=O)(=O)N1CCC1)c1cnc(OCC23CC4CC(CC(C4)C2)C3)c(C2CC2)c1`, for which the figures for the IC50 on hNav1.7 [1] (setting [3]), on hNav1.7 [2] (setting [4]) and on hNav1.5 were 290 nM, 63 nM and 7500 nM, respectively.
The corresponding values for `O=C(NS(=O)(=O)N1CCC1)c1cc(C2CC2)c(OCC23CCCCC2C3)cc1F` (stereo not drawn) are 6 nM, 2 nM and 160 nM.
Consider `CC1(C)[C@H]2CC[C@H](COc3cc(F)c(C(=O)NS(C)(=O)=O)cc3Cl)[C@@H]1C2`, for which the IC50 was found to be 12 nM on hNav1.7 [1] (setting [3]) and 1070 nM at hNav1.5.
For `O=C(NS(=O)(=O)N1CC[C@H](O)C1)c1cc(C2CC2)c(OCC23CC4CC(CC(C4)C2)C3)cc1F` the same measures were 10 nM and 110 nM.
As to `CS(=O)(=O)NC(=O)c1cc(C2CC2)c(OCC2CCC(F)(F)CC2)cc1F`, the IC50 at hNav1.5 came to 5230 nM.
Take `CS(=O)(=O)NC(=O)c1cc(C2CC2)c(OCC2CCCC(F)(F)C2)cc1F` (stereo not drawn): the IC50 on hNav1.7 [1] (setting [3]) came to 27 nM; on hNav1.7 [2] (setting [4]), 420 nM.
The corresponding values for `O=C(NS(=O)(=O)N1CCC1)c1cc(Cl)c(OCC2CCC3(CCC3)CC2)cc1F` are 25 nM and 77 nM.
As to `CNS(=O)(=O)NC(=O)c1cc(C2CC2)c(OCC2CCCC(F)(F)C2)cc1F` (stereo not drawn), the figures for the IC50 at hNav1.7 [1] (setting [3]) and at hNav1.7 [2] (setting [4]) were 66 nM and 930 nM, respectively.
`CN(C)S(=O)(=O)NC(=O)c1cc(Cl)c(OC2CC3CC2C2CCCC32)cc1F` (stereo not drawn): the IC50 on hNav1.7 [1] (setting [3]) was 535 nM; at hNav1.5, 7820 nM.
As to `O=C(NS(=O)(=O)N1CCC1)c1cc(C2CC2)c(OCC2CCC(Cl)(Cl)CC2)cc1F` [Example 377], the figures for the IC50 on hNav1.7 [1] (setting [3]) and at hNav1.7 [2] (setting [4]) were 8 nM and 84 nM, respectively.
